Measurements from PMC8387526, “Small peptide-based GLP-1R ligands: an approach to reduce the kidney uptake of radiolabeled GLP-1R-targeting agents?” (EJNMMI Radiopharmacy and Chemistry, 2021).
Square brackets hold non-standard residues; d marks the D form. Peptide text beside a SMILES is read from it. Bip(2'-Et-4'-OMe) = CCc1cc(OC)ccc1-c1ccc(C[C@H](N)C(=O)O)cc1; αMePhe(2-F) = C[C@](N)(Cc1ccccc1F)C(=O)O; hPhe = N[C@@H](CCc1ccccc1)C(=O)O; Aib = CC(C)(N)C(=O)O

How the values were obtained:
human GLP-1 receptor [1] = target: T1, human GLP-1 receptor (Homo sapiens, UniProt P43220); design: Dr. Timothy Kieffer (University of British Columbia); method as in Mapelli et al., 2009; Haque et al., 2010a; details: CHO cells stably overexpressing the human GLP-1 receptor; ref Mapelli et al., 2009; Haque et al., 2010a; read-out: EC50 (cAMP production); cited from earlier work
T1 sequence (P43220 24-463): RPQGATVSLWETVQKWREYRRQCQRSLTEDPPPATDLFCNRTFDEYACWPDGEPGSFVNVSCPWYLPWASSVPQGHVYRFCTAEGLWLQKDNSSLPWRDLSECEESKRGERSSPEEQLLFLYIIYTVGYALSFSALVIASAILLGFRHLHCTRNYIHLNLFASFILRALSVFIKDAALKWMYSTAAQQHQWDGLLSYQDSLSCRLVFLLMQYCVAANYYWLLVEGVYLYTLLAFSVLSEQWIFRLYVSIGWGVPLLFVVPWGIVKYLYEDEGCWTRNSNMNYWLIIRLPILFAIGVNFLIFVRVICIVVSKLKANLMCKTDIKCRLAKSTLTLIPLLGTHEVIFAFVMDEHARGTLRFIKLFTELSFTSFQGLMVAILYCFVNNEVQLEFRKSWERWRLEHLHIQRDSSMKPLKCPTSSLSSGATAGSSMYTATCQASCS

human GLP-1 receptor [2] = target: T1, human GLP-1 receptor; test: Competitive binding (IC50) on HEK293-hGLP-1R cells with radioligand [Nle^14, [^125I]Tyr(3-I)^40]exendin-4; design: Dr. Timothy Kieffer (University of British Columbia); host or cells: HEK293; details: w/ BSA (1% BSA); HEK293-hGLP-1R cells, 4 °C, 2 h, 0.41 nM radioligand; read-out: IC50 ± SD
Protocol: Dr. Timothy Kieffer (University of British Columbia, Vancouver, Canada). Cells were cultivated in high glucose DMEM (25.0 mM D-glucose, 3.97 mM GlutaMAX; REF-number: 61965–026; Fisher Scientific GmbH, Schwerte, Germany) supplemented with 10% fetal bovine serum and 1 mM sodium pyruvate. Medium for stably transfected HEK293-hGLP-1R cells was constantly supplemented with 1 mg/mL Geneticin (G-418 Biochrom, Merck KgaA, Darmstadt, Germany) as selection antibiotic. The cell line was kept at 37 °C in a humidified 5% CO2 atmosphere. One day (24 ± 2 h) prior to all in vitro experiments, the cultivated HEK293-h-GLP-1R cells were harvested using a mixture of trypsin/ethylenediaminetetraacetic acid (0.05%/0.02%) in phosphate-buffered saline (PBS) (Gibco, Germany) and centrifuged at 1300 rpm (ca. 190×g) for 3 min at room temperature (Heraeus Megafuge 16, Thermo Fisher, Germany). After centrifugation, the supernatant was disposed and the cell pellet was resuspended in culture medium. Cells were counted with a Neubauer hemocytometer (Paul Marienfeld GmbH & Co. KG, Lauda-Königshofen, Germany) and seeded in 24-well plates. IC50 values were determined by transferring 1.50 × 10^5 cells/mL per well into 24-well plates.
Detailed information on affinity experiments is provided in the SI. In brief, competitive binding studies were determined on HEK293-hGLP-1R cells (1.50 × 10^5 cells in 1 mL/well) after incubation at 4 °C for 2 hours, using [^125I]Tyr(3-I)^40–3 (0.41 nM/well) as reference radioligand (n = 3).
Dr. Timothy J. Kieffer (University of British Columbia, Vancouver, Canada). Cells were cultivated in high glucose DMEM (25.0 mM D-glucose, 3.97 mM GlutaMAX; REF-number: 61965-026; Fisher Scientific GmbH, Schwerte, Germany) supplemented with 10% fetal bovine serum and 1 mM sodium pyruvate. Medium for stably transfected HEK293-hGLP-1R cells was constantly supplemented with 1 mg/mL Geneticin (G-418 Biochrom, Merck KgaA, Darmstadt, Germany) as selection antibiotic. The cell line was kept at 37 °C in a humidified 5% CO2 atmosphere. One day (24 ± 2 h) prior to all in vitro experiments, the cultivated cells were harvested using a mixture of trypsin/ethylenediaminetetraacetic acid (0.05%/0.02%) in phosphate-buffered saline (PBS) (Merck KgaA, Darmstadt, Germany) and centrifuged at 1300 rpm (ca. 190 × g) for 3 min at room temperature (Heraeus Megafuge 16, Thermo Fisher Scientific, Darmstadt, Germany). After centrifugation, the supernatant was disposed and the cell pellet was resuspended in culture medium. Cells were counted with a Neubauer hemocytometer (Paul Marienfeld GmbH & Co. KG, Lauda-Königshofen, Germany) and seeded in 24-well plates (Greiner Bio-One, Kremsmünster, Austria). IC50 values were determined by transferring 1.50 × 10^5 cells/mL per well into 24-well plates (Greiner Bio-One, Kremsmünster, Austria).
The culture medium was removed and the cells were washed with 500 µL of Hank’s balanced salt solution (HBSS) (Merck KGaA, Darmstadt, Germany), containing 1% bovine serum albumin (BSA) (Merck KGaA, Darmstadt, Germany). Afterwards, 200 µL of HBSS (1% BSA) were added to each well and equilibrated on ice (4 °C) for 15 min. 25 µL/well of either HBSS (1% BSA) (= control) or of solutions, containing the respective unlabeled ligand in increasing concentrations (10^-10 - 10^-4 M in HBSS) were added, followed by the addition of 25 µL of [Nle^14, [^125I]Tyr(3-I)^40]exendin-4 in HBSS (1% BSA) to each well. Experiments were carried out in triplicates for each concentration. The final concentrations of unlabeled ligand ranged from 10^-11 - 10^-5 M and the final radioligand concentration was 0.41 nM in all binding assays. The cells were incubated for two hours at 4 °C. Incubation was terminated by removal of the incubation medium. The cells were washed with 250 µL of HBSS (1% BSA) and the wash medium was combined with the respective supernatant. This fraction represents the amount of free radioligand. The cells were lysed by addition of 250 µL of 1 M aqueous NaOH. […]

CCc1cc(OC)ccc1-c1ccc(C[C@H](NC(=O)[C@H](CC(=O)O)NC(=O)[C@H](CO)NC(=O)[C@@H](NC(=O)[C@](C)(Cc2ccccc2F)NC(=O)[C@@H](NC(=O)CNC(=O)[C@H](CCC(=O)O)NC(=O)C(C)(C)NC(=O)[C@@H](N)Cc2c[nH]cn2)[C@@H](C)O)[C@@H](C)O)C(=O)N[C@@H](CCc2ccccc2)C(N)=O)cc1 [Peptide 1, H-L-His-Aib-L-Glu-Gly-L-Thr-L-(α-Me)Phe(2-F)-L-Thr-L-Ser-L-Asp-L-(2’-Et, 4’-OMe)BIP-L-homoPhe-NH2, reference compound] (H-H[Aib]EGT[αMePhe(2-F)]TSD[Bip(2'-Et-4'-OMe)][hPhe]-NH2)
EC50 (human GLP-1 receptor [1]): 0.031 nM
IC50 (human GLP-1 receptor [2]): 669 ± 242 nM
